Test results taken from US20120244549A1, “Detection Method for Methyltransferase Enzymatic Activity” (BELLBROOK LABS, LLC, priority 2011, published 2012).

Target: T1, G9a methyltransferase (Homo sapiens, UniProt Q96KQ7)
T1 sequence (Q96KQ7 1-1210): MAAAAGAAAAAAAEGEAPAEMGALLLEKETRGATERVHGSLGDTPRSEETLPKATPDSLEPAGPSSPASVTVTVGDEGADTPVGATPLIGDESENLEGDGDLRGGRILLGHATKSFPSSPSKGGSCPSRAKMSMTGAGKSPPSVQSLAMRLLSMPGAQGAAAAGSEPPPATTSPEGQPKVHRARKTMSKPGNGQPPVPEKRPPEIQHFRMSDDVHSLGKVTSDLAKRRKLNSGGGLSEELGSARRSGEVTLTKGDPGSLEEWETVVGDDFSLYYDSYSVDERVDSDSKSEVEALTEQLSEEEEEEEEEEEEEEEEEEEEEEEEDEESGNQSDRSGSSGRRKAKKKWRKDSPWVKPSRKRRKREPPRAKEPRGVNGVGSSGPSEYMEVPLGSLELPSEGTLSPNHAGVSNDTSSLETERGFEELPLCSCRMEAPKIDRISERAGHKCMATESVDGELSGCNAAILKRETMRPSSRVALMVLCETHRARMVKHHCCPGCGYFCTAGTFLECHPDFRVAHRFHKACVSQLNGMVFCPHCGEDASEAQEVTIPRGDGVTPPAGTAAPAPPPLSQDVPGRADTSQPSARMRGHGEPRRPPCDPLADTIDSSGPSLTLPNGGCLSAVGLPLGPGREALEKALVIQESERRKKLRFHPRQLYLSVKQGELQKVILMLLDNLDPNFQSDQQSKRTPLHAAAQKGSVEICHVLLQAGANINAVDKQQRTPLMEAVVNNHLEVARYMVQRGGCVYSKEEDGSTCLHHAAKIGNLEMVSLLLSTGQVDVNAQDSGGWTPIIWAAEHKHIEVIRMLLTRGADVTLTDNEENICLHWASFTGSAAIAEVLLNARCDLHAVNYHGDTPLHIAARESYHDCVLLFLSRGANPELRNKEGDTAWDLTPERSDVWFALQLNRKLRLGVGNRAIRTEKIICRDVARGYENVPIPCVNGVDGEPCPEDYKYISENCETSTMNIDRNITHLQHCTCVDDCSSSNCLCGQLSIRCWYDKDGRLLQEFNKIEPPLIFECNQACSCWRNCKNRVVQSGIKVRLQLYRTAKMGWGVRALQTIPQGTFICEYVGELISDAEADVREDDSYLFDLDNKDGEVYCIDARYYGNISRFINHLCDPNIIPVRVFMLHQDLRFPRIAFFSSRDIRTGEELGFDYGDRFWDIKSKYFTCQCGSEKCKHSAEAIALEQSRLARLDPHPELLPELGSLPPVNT
Assay: G9a histone methyltransferase inhibitor dose response, coupled-enzyme AMP fluorescent immunodetection assay (FIG. 6)
Assay type: biochemical
Procedure: In addition, inhibitor potencies were determined with G9a HMT.
HMT reactions were run for 60 minutes followed by addition of quench and detection reagents including the SAM-SAH coupling enzyme mixture and the Transcreener® AMP2/GMP2 Assay monoclonal antibody and tracer.

SMILES: CN1C(=O)[C@@]23C[C@]4([C@]56C[C@@]78SS[C@@](CO)(C(=O)N7[C@H]5Nc5ccccc56)N(C)C8=O)c5ccccc5N[C@@H]4N2C(=O)[C@]1(CO)SS3 [chaetocin]
- IC50: 770 µM
